Experimental findings from patent US11492335B2, “Aryl or heteroaryl triazolone derivatives or salts thereof, or pharmaceutical compositions comprising the same” (YUHAN CORPORATION, priority 2018, dated 2022) are described below.

Molecules are shown by their SMILES. Structures can show the parent of a compound that is named as a salt. Where two headings read alike, the source gives them in different places. Some results are limits rather than exact numbers.

What all share (type): biochemical
One assay deals with T1, recombinant human VAP-1 (Homo sapiens, UniProt Q16853).
T1 construct: purchased R&D systems
T1 sequence (Q16853 1-763): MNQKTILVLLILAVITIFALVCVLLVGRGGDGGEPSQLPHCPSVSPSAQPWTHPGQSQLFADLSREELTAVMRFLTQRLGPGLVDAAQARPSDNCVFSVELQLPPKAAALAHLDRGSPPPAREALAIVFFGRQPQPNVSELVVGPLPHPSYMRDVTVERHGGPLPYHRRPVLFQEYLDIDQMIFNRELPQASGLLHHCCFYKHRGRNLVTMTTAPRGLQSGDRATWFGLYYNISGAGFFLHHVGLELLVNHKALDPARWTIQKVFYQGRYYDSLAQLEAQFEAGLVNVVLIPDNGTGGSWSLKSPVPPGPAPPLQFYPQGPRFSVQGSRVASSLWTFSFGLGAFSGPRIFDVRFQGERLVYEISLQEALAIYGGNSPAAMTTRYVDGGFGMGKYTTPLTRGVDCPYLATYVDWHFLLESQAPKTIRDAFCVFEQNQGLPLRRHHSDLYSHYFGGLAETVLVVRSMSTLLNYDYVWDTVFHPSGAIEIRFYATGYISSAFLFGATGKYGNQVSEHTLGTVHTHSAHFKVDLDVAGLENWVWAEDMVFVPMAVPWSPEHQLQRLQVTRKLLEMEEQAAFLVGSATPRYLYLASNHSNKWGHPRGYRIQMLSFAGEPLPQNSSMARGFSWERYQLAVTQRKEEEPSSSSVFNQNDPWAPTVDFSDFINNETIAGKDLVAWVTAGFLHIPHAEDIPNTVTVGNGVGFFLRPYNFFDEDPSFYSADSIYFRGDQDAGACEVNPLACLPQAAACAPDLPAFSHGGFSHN
The experiment in a line: Activity on recombinant human VAP-1, Amplex Red HRP-coupled hydrogen peroxide assay, benzylamine substrate. Conditions: recombinant human VAP-1, benzylamine substrate, read-out: Inhibitory Activity (IC50, nM) human VAP-1. In outline:
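Enzyme in 50 mM sodium phosphate pH 7.4 preincubated with compound 30 min at 37 °C, then 1 mM benzylamine, 200 µM Amplex Red and 1 U/mL HRP added. H2O2-derived resorufin fluorescence (ex 544/em 590 nm) followed over 1–2 h; signal-rate decrease versus DMSO control, 8-point curve, four-parameter logistic IC50.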

Assay [1] concerns the target T2, recombinant human MAO-A (monoamine oxidase-A) (Homo sapiens, UniProt P21397).
T2 construct: purchased Sigma-Aldrich
T2 sequence (P21397 1-527): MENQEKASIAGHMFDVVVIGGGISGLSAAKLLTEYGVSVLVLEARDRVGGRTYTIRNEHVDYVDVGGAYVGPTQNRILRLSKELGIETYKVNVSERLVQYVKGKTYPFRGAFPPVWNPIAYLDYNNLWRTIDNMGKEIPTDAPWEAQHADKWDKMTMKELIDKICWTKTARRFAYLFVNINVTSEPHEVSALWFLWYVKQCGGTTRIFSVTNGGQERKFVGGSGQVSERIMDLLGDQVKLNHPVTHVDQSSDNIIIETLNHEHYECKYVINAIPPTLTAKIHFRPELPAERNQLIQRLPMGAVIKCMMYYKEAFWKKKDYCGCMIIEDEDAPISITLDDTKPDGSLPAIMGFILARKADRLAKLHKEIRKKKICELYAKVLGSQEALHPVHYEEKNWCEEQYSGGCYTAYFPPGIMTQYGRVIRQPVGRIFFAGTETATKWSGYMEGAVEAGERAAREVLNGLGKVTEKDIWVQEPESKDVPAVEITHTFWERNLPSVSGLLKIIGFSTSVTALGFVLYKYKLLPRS
Briefly: Activity on recombinant human MAO-A, Amplex Red method, 0.5 mM tyramine substrate. Conditions: read-out: Inhibitory Activity (IC50, nM) MAO-A. In outline:
(§1)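 Enzyme preincubated with compound 30 min at 37 °C in 50 mM sodium phosphate pH 7.4, final DMSO below 1%. Substrate was 0.5 mM tyramine for MAO-A and 1 mM benzylamine for MAO-B, with 200 uM Amplex Red and 1 U/mL HRP. H2O2-coupled resorufin fluorescence (ex 544/em 590) followed over 1–2 h; 8-point 4-parameter IC50.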

Assay [2] has as its target T3, recombinant human MAO-B (monoamine oxidase-B) (Homo sapiens, UniProt P27338).
T3 construct: purchased Sigma-Aldrich
T3 sequence (P27338 1-520): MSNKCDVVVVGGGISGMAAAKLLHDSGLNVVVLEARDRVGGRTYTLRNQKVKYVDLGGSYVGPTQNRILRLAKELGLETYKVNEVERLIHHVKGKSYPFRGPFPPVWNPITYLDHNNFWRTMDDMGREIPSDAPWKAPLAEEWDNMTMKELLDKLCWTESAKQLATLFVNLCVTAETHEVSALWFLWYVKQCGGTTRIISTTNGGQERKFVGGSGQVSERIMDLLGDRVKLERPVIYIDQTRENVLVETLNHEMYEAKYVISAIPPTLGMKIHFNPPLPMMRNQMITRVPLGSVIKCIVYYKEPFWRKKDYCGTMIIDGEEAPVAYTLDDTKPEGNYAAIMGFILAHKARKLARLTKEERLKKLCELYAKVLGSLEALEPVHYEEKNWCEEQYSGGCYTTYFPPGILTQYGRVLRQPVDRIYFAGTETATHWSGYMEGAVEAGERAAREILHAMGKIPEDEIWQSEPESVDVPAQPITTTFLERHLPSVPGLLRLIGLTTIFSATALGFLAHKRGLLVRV
Briefly: Activity on recombinant human MAO-B, Amplex Red method, 1 mM benzylamine substrate. The settings on record: read-out: Inhibitory Activity (IC50, nM) MAO-B. In outline: as §1

Assay [3] concerns the target T4, recombinant human DAO (diamine oxidase) (Homo sapiens, UniProt P19801).
T4 construct: purchased R&D systems
T4 sequence (P19801 20-751): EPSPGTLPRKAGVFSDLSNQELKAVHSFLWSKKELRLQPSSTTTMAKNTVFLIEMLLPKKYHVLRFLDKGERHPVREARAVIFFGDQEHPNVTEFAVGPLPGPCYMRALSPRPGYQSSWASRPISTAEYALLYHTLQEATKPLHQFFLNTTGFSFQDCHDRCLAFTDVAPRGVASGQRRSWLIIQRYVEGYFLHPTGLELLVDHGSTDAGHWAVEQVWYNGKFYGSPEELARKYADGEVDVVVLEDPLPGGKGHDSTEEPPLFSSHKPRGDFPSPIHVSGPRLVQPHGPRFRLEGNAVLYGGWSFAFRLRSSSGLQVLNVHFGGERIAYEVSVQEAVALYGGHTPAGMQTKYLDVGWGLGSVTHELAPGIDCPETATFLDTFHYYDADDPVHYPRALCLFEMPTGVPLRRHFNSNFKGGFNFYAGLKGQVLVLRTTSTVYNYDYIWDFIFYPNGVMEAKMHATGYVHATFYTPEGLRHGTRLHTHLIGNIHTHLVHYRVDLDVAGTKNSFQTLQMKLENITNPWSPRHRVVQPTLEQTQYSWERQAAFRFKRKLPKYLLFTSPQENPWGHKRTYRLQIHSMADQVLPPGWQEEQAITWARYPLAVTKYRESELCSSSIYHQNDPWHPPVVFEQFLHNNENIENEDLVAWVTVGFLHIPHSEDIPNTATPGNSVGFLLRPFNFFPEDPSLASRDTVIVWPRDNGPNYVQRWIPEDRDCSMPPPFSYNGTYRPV
The experiment in a line: Activity on recombinant human DAO, Amplex Red method, 1 mM putrescine substrate. The settings on record: recombinant human DAO, read-out: Inhibitory Activity (IC50, nM) DAO. In outline:
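Inhibition of recombinant human DAO (diamine oxidase, R&D systems) was assessed with the Amplex Red Hydrogen Peroxide Assay Kit. Hydrogen peroxide produced from 1 mM putrescine was detected through an HRP-coupled reaction that converts Amplex Red into fluorescent resorufin, read at 544 nm excitation and 590 nm emission. IC50 values came from four-parameter logistic fits in GraphPad Prism.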

Setting [4] is: 1 mM putrescine, * = between 10 and 100 nM, ** = between 300 and 1000 nM.

For `NC/C(=C\F)Cn1ncn(-c2cccc(-c3cc4ccccc4s3)c2)c1=O` [Example 101, 2-[(2E)-2-(aminomethyl)-3-fluoroprop-2-en-1-yl]-4-[3-(1-benzothiophen-2-yl)phenyl]-2,4-dihydro-3H-1,2,4-triazol-3-one hydrochloride], the IC50 on recombinant human VAP-1 (30 min preincubation at 37° C.) came out at 0.9 nM; in assay [1] (0.5 mM tyramine), 58000 nM; in assay [2] (1 mM benzylamine), 300 nM; in assay [3] (setting [4]), 34 nM.

For `CC(=O)Nc1ccc(-c2cccc(-c3cccc(-n4cnn(C/C(=C/F)CN)c4=O)c3)c2)cc1` [Example 69, N-(3″-{1-[(2E)-2-(aminomethyl)-3-fluoroprop-2-en-1-yl]-5-oxo-1,5-dihydro-4H-1,2,4-triazol-4-yl}-1,1′:3′,1″-terphenyl-4-yl)acetamide hydrochloride], the IC50 on recombinant human VAP-1 (30 min preincubation at 37° C.) was 0.63 nM; in assay [1] (0.5 mM tyramine), 4910 nM; in assay [2] (1 mM benzylamine), 1100 nM; in assay [3] (setting [4]) it was 11 nM.

Regarding `NC/C(=C\F)Cn1ncn(-c2cccc(C#Cc3cccnc3)c2)c1=O` [Example 243, 2-[(2E)-2-(aminomethyl)-3-fluoroprop-2-en-1-yl]-4-[3-(pyridin-3-ylethynyl)phenyl]-2,4-dihydro-3H-1,2,4-triazol-3-one hydrochloride], the IC50 was 0.6 nM on recombinant human VAP-1, over 100000 nM in assay [1] (0.5 mM tyramine substrate), 940 nM in assay [2] (1 mM benzylamine substrate) and 18 nM in assay [3] (1 mM putrescine substrate).

In the case of `Cc1c(-c2ccc(-c3ccon3)cc2)cccc1-n1cnn(C/C(=C/F)CN)c1=O` [Example 108, 2-[(2E)-2-(aminomethyl)-3-fluoroprop-2-en-1-yl]-4-[2-methyl-4′-(1,2-oxazol-3-yl)biphenyl-3-yl]-2,4-dihydro-3H-1,2,4-triazol-3-one], the concentration for half-maximal inhibition (IC50) on recombinant human VAP-1 (30 min preincubation at 37° C.) is 2.2 nM; in assay [1] (0.5 mM tyramine) it was over 100000 nM; in assay [2] (1 mM benzylamine) it was over 10000 nM; in assay [3] (setting [4]), 3500 nM.

`NC/C(=C\F)Cn1ncn(-c2cccc(-c3cnc(O)c(C(F)(F)F)c3)c2)c1=O` [Example 88, 2-[(2E)-2-(aminomethyl)-3-fluoroprop-2-en-1-yl]-4-{3-[6-hydroxy-5-(trifluoromethyl)pyridin-3-yl]phenyl}-2,4-dihydro-3H-1,2,4-triazol-3-one hydrochloride]: the IC50 at recombinant human VAP-1 (30 min preincubation at 37° C.) is 1.1 nM; in assay [1] (0.5 mM tyramine) it was over 100000 nM; in assay [2] (1 mM benzylamine) it was 9600 nM; in assay [3] (setting [4]), under 10 nM.

On to `NC/C(=C\F)Cn1ncn(-c2ncc(Br)s2)c1=O` [Example 41, 2-[(2E)-2-(aminomethyl)-3-fluoroprop-2-en-1-yl]-4-(5-bromo-1,3-thiazol-2-yl)-2,4-dihydro-3H-1,2,4-triazol-3-one hydrochloride], for which the IC50 is 0.6 nM at recombinant human VAP-1 (30 min preincubation at 37° C.), 780 nM in assay [1] (0.5 mM tyramine), 174 nM in assay [2] (1 mM benzylamine) and 17 nM in assay [3] (setting [4]).

As for `NC/C(=C\F)Cn1ncn(-c2cccc(-c3ccc4c(c3)NC(=O)OC4)n2)c1=O` [Example 200, 7-(6-{1-[(2E)-2-(aminomethyl)-3-fluoroprop-2-en-1-yl]-5-oxo-1,5-dihydro-4H-1,2,4-triazol-4-yl}pyridin-2-yl)-1,4-dihydro-2H-3,1-benzoxazin-2-one hydrochloride], the IC50 at recombinant human VAP-1 is 0.2 nM; in assay [1] (0.5 mM tyramine substrate), over 100000 nM; in assay [2] (1 mM benzylamine substrate), 1100 nM; in assay [3] (1 mM putrescine substrate) it was 1.6 nM.

Consider `NC/C(=C\F)Cn1ncn(-c2cnc(-c3cccc(-c4nc[nH]n4)c3)cn2)c1=O` [Example 219, 2-[(2E)-2-(aminomethyl)-3-fluoroprop-2-en-1-yl]-4-{5-[3-(1H-1,2,4-triazol-3-yl)phenyl]pyrazin-2-yl}-2,4-dihydro-3H-1,2,4-triazol-3-one], for which the IC50 was 2.3 nM at recombinant human VAP-1, over 100000 nM in assay [1] (0.5 mM tyramine substrate), 41 nM in assay [2] (1 mM benzylamine substrate) and under 100 nM in assay [3] (1 mM putrescine substrate).

For the compound `Cc1cc(-n2cnn(C/C(=C\F)CN)c2=O)ccc1Br` [Example 15, 2-[(2Z)-2-(aminomethyl)-3-fluoroprop-2-en-1-yl]-4-(4-bromo-3-methylphenyl)-2,4-dihydro-3H-1,2,4-triazol-3-one], the IC50 turned out to be 2.2 nM on recombinant human VAP-1 (30 min preincubation at 37° C.), 710 nM in assay [1] (0.5 mM tyramine), 9.8 nM in assay [2] (1 mM benzylamine) and 85 nM in assay [3] (setting [4]).

On to `NC/C(=C\F)Cn1ncn(-c2cccc(-c3ccc(N4CCOCC4)cc3)c2)c1=O` [Example 74, 2-[(2E)-2-(aminomethyl)-3-fluoroprop-2-en-1-yl]-4-[4′-(morpholin-4-yl)biphenyl-3-yl]-2,4-dihydro-3H-1,2,4-triazol-3-one hydrochloride], for which the IC50 on recombinant human VAP-1 (30 min preincubation at 37° C.) was 0.84 nM; in assay [1] (0.5 mM tyramine), over 100000 nM; in assay [2] (1 mM benzylamine), over 10000 nM; in assay [3] (setting [4]) it was 282 nM.

The IC50 is the midpoint of a concentration-inhibition curve.
